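All cell lines were grown in 96-well plates and treated with compound for 48 hours. Definition used: TGI = concentration required for complete inhibition of growth.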
Tests used:
Experiment in all cases: NCI-60 cell line screen, 48 h
SN12C renal = system: SN12C renal
OVCAR-4 ovarian = system: OVCAR-4 ovarian
NCI-H23 lung = system: NCI-H23 lung
BT-549 breast = system: BT-549 breast
SK-OV-3 ovarian = system: SK-OV-3 ovarian
CCRF-CEM leukemia = system: CCRF-CEM leukemia
UACC-257 melanoma = system: UACC-257 melanoma
NCI/ADR-RES ovarian = system: NCI/ADR-RES ovarian
MDA-MB-435 = system: MDA-MB-435
UACC-62 melanoma = system: UACC-62 melanoma
SNB-19 CNS = system: SNB-19 CNS
OVCAR-8 ovarian = system: OVCAR-8 ovarian
MALME-3M melanoma = system: MALME-3M melanoma
KM12 colon = system: KM12 colon
NCI-H522 lung = system: NCI-H522 lung
PC-3 prostate = system: PC-3 prostate
HOP-62 NSCLC = system: HOP-62 NSCLC
HCT-116 colon = system: HCT-116 colon
RXF 393 renal = system: RXF 393 renal
MDA-N = system: MDA-N
786-0 renal = system: 786-0 renal
HCC-2998 colon = system: HCC-2998 colon
OVCAR-3 ovarian = system: OVCAR-3 ovarian
SK-MEL-28 melanoma = system: SK-MEL-28 melanoma
CAKI-1 renal = system: CAKI-1 renal
SK-MEL-2 melanoma = system: SK-MEL-2 melanoma
K-562 leukemia = system: K-562 leukemia
A549 NSCLC = system: A549 NSCLC
HCT-15 colon = system: HCT-15 colon
SK-MEL-5 melanoma = system: SK-MEL-5 melanoma
SW-620 colon = system: SW-620 colon
MDA-MB-231 breast = system: MDA-MB-231 breast
SR leukemia = system: SR leukemia
HS 578T breast = system: HS 578T breast
IGROV1 ovarian = system: IGROV1 ovarian
SNB-75 CNS = system: SNB-75 CNS
UO-31 renal = system: UO-31 renal
SF-539 CNS = system: SF-539 CNS
OVCAR-5 ovarian = system: OVCAR-5 ovarian
NCI-H460 lung = system: NCI-H460 lung
HT29 colon = system: HT29 colon
MOLT-4 leukemia = system: MOLT-4 leukemia
MCF7 breast = system: MCF7 breast
SF-295 CNS = system: SF-295 CNS
LOX IMVI melanoma = system: LOX IMVI melanoma
NCI-H226 lung = system: NCI-H226 lung
T-47D breast = system: T-47D breast
EKVX NSCLC = system: EKVX NSCLC
TK-10 renal = system: TK-10 renal
ACHN renal = system: ACHN renal
M14 melanoma = system: M14 melanoma
U251 CNS = system: U251 CNS
SF-268 CNS = system: SF-268 CNS
HL-60(TB) leukemia = system: HL-60(TB) leukemia
DU-145 prostate = system: DU-145 prostate
COLO 205 colon = system: COLO 205 colon
RPMI-8226 leukemia = system: RPMI-8226 leukemia

Compound: O=c1c(S(=O)(=O)Oc2ccccc2)coc2cc(F)ccc12
- TGI (SN12C renal): > 100 µM
- TGI (OVCAR-4 ovarian): > 100 µM
- TGI (NCI-H23 lung): > 100 µM
- TGI (BT-549 breast): > 100 µM
- TGI (SK-OV-3 ovarian): > 100 µM
- TGI (CCRF-CEM leukemia): > 100 µM
- TGI (UACC-257 melanoma): > 100 µM
- TGI (NCI/ADR-RES ovarian): > 100 µM
- TGI (MDA-MB-435): > 100 µM
- TGI (UACC-62 melanoma): > 100 µM
- TGI (SNB-19 CNS): > 100 µM
- TGI (OVCAR-8 ovarian): > 100 µM
- TGI (MALME-3M melanoma): > 100 µM
- TGI (KM12 colon): > 100 µM
- TGI (NCI-H522 lung): > 100 µM
- TGI (PC-3 prostate): > 100 µM
- TGI (HOP-62 NSCLC): > 100 µM
- TGI (HCT-116 colon): > 100 µM
- TGI (RXF 393 renal): > 100 µM
- TGI (MDA-N): > 100 µM
- TGI (786-0 renal): > 100 µM
- TGI (HCC-2998 colon): > 100 µM
- TGI (OVCAR-3 ovarian): > 100 µM
- TGI (SK-MEL-28 melanoma): > 100 µM
- TGI (CAKI-1 renal): > 100 µM
- TGI (SK-MEL-2 melanoma): > 100 µM
- TGI (K-562 leukemia): > 100 µM
- TGI (A549 NSCLC): > 100 µM
- TGI (HCT-15 colon): > 100 µM
- TGI (SK-MEL-5 melanoma): > 100 µM
- TGI (SW-620 colon): > 100 µM
- TGI (MDA-MB-231 breast): > 100 µM
- TGI (SR leukemia): > 100 µM
- TGI (HS 578T breast): > 100 µM
- TGI (IGROV1 ovarian): > 100 µM
- TGI (SNB-75 CNS): > 100 µM
- TGI (UO-31 renal): > 100 µM
- TGI (SF-539 CNS): > 100 µM
- TGI (OVCAR-5 ovarian): > 100 µM
- TGI (NCI-H460 lung): > 100 µM
- TGI (HT29 colon): > 100 µM
- TGI (MOLT-4 leukemia): > 100 µM
- TGI (MCF7 breast): > 100 µM
- TGI (SF-295 CNS): > 100 µM
- TGI (LOX IMVI melanoma): > 100 µM
- TGI (NCI-H226 lung): 73.6 µM
- TGI (T-47D breast): > 100 µM
- TGI (EKVX NSCLC): > 100 µM
- TGI (TK-10 renal): > 100 µM
- TGI (ACHN renal): > 100 µM
- TGI (M14 melanoma): > 100 µM
- TGI (U251 CNS): > 100 µM
- TGI (SF-268 CNS): > 100 µM

Compound: Cc1csc2n(C)c(=O)c3ccccc3[n+]12
- TGI (SN12C renal): > 100 µM
- TGI (OVCAR-4 ovarian): > 100 µM
- TGI (NCI-H23 lung): > 100 µM
- TGI (BT-549 breast): > 100 µM
- TGI (SK-OV-3 ovarian): > 100 µM
- TGI (CCRF-CEM leukemia): > 100 µM
- TGI (UACC-257 melanoma): > 100 µM
- TGI (NCI/ADR-RES ovarian): > 100 µM
- TGI (MDA-MB-435): > 100 µM
- TGI (UACC-62 melanoma): > 100 µM
- TGI (SNB-19 CNS): > 100 µM
- TGI (OVCAR-8 ovarian): > 100 µM
- TGI (KM12 colon): > 100 µM
- TGI (NCI-H522 lung): > 100 µM
- TGI (PC-3 prostate): > 100 µM
- TGI (HOP-62 NSCLC): > 100 µM
- TGI (HCT-116 colon): > 100 µM
- TGI (RXF 393 renal): > 100 µM
- TGI (MDA-N): > 100 µM
- TGI (786-0 renal): > 100 µM
- TGI (HCC-2998 colon): > 100 µM
- TGI (OVCAR-3 ovarian): > 100 µM
- TGI (SK-MEL-28 melanoma): > 100 µM
- TGI (CAKI-1 renal): > 100 µM
- TGI (HL-60(TB) leukemia): > 100 µM
- TGI (SK-MEL-2 melanoma): > 100 µM
- TGI (K-562 leukemia): > 100 µM
- TGI (A549 NSCLC): > 100 µM
- TGI (DU-145 prostate): > 100 µM
- TGI (HCT-15 colon): > 100 µM
- TGI (SK-MEL-5 melanoma): > 100 µM
- TGI (SW-620 colon): > 100 µM
- TGI (MDA-MB-231 breast): > 100 µM
- TGI (COLO 205 colon): > 100 µM
- TGI (SR leukemia): > 100 µM
- TGI (HS 578T breast): > 100 µM
- TGI (IGROV1 ovarian): > 100 µM
- TGI (UO-31 renal): > 100 µM
- TGI (SF-539 CNS): > 100 µM
- TGI (OVCAR-5 ovarian): > 100 µM
- TGI (NCI-H460 lung): > 100 µM
- TGI (RPMI-8226 leukemia): > 100 µM
- TGI (HT29 colon): > 100 µM
- TGI (MOLT-4 leukemia): > 100 µM
- TGI (MCF7 breast): > 100 µM
- TGI (SF-295 CNS): > 100 µM
- TGI (LOX IMVI melanoma): > 100 µM
- TGI (NCI-H226 lung): > 100 µM
- TGI (T-47D breast): > 100 µM
- TGI (EKVX NSCLC): > 100 µM
- TGI (TK-10 renal): > 100 µM
- TGI (ACHN renal): > 100 µM
- TGI (M14 melanoma): > 100 µM
- TGI (U251 CNS): > 100 µM
- TGI (SF-268 CNS): > 100 µM

From PubChem BioAssay (NCI)
